Experiment [1] has as its target T1, human ASIC1a L280C (Homo sapiens, UniProt P78348, L280C).
T1 construct: expressed in transfected cells; host or cells: Xenopus laevis oocytes (nuclear injection of pMT3 expression plasmid)
T1 sequence (P78348 1-528 L280C): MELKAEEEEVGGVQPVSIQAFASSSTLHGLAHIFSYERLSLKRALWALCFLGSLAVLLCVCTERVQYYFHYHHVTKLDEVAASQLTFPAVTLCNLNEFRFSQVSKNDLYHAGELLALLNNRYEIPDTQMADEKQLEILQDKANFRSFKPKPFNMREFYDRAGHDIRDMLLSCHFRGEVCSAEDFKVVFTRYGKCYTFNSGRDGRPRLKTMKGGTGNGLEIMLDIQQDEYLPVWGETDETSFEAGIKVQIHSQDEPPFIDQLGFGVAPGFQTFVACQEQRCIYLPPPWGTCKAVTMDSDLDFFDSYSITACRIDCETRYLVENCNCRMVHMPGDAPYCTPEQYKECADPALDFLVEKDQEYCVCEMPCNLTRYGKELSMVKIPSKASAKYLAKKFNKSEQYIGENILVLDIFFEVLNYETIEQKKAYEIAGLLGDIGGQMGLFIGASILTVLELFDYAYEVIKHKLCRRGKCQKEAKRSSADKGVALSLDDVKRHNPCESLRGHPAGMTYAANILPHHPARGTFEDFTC
Description: FRRFa / FRRF (no amide) modulation of acid-evoked currents, two-electrode voltage clamp in Xenopus oocytes. In kind it is cell-based. The following applies: 100 µM peptide 1 min at pH 7.4 before pH 5.0, current at 60 s normalized to peak, p = 2x10^-6 vs FRRFa. The protocol: The Stratagene QuikChange® site-directed mutagenesis kit (Cedar Creek, TX) was used to introduce point mutations into the human ASIC1a cDNA (GENBANK accession number NM_001095) within the pMT3 expression vector. Mutations were confirmed by DNA sequencing at the Plant-Microbe Genomics Facility at The Ohio State University and high quality plasmid DNA was prepared for injection using Qiagen (Valencia, CA) Midi prep kits. Female Xenopus laevis were purchased from Xenopus I (Dexter, MI) and Xenopus oocytes were isolated using standard procedures. This work was implemented in accordance with the Guide for the Care and Use of Laboratory Animals of the National Institutes of Health and approved by the Institutional Animal Care and Use Committee of The Ohio State University (protocol # 2009A0161-R1). The oocyte removal surgery was performed under tricaine methanesulfonate (MS222) anesthesia and all efforts were made to minimize suffering. Ovarian lobes were removed and digested for 1.5-2 hours at room temperature with 1.2 mg/ml collagenase in Modified Barth’s solution lacking calcium (24 mM NaHCO3, 88 mM NaCl, 15 mM HEPES, 1 mM KCl, 0.8 mM MgSO4, 125 units/liter penicillin/streptomycin) to separate individual oocytes and remove follicular membranes. Healthy stage IV and V oocytes were selected and maintained in Modified Barth’s solution containing calcium (0.4 mM CaCl2 and 0. 3 mM Ca(NO3)2). The nuclei of isolated oocytes were injected with ~5 ng of a 100 ng/µl stock of wildtype or mutant ASIC1a expression plasmids using a PV820 pneumatic picopump (World Precision Instruments, Sarasota, FL). Oocytes were incubated at 18 °C for 18-96 hours before experiments were performed. […]
(§1) In order to obtain the pH dependence of activation, basal pH was maintained at pH 7.4. […] Peak current amplitude was measured for each test pH and normalized to the average peak amplitude of flanking pH 5.0 currents to minimize the impact of potential tachyphylaxis. […] As before, maximal currents were measured before and after test conditioning pH to minimize the effect of possible tachyphylaxis of proton-gated current. […]
In general terms: In two-electrode clamp one electrode senses voltage and the other passes current.

The target in experiment [2] is T1, human ASIC1a L280C. Description: Peptide-MTSET competition (MTSET modification in presence of peptide, residual current read-out). In kind it is cell-based. The protocol:
The Stratagene QuikChange® site-directed mutagenesis kit (Cedar Creek, TX) was used to introduce point mutations into the human ASIC1a cDNA (GENBANK accession number NM_001095) within the pMT3 expression vector. Mutations were confirmed by DNA sequencing at the Plant-Microbe Genomics Facility at The Ohio State University and high quality plasmid DNA was prepared for injection using Qiagen (Valencia, CA) Midi prep kits. Female Xenopus laevis were purchased from Xenopus I (Dexter, MI) and Xenopus oocytes were isolated using standard procedures. This work was implemented in accordance with the Guide for the Care and Use of Laboratory Animals of the National Institutes of Health and approved by the Institutional Animal Care and Use Committee of The Ohio State University (protocol # 2009A0161-R1). The oocyte removal surgery was performed under tricaine methanesulfonate (MS222) anesthesia and all efforts were made to minimize suffering. […]
Vehicle or 100 µM peptide was applied for 1 minute at pH 7.4. […] Before residual current was measured, oocytes were washed with at least 50 mL of pH 7.4 over 10 minutes in order to remove peptides. […]

A further experiment concerns wildtype ASIC1a. Description: MTSET exposure, two-electrode voltage clamp in Xenopus oocytes. In kind it is cell-based, human. As for the experimental part:
(§2) The Stratagene QuikChange® site-directed mutagenesis kit (Cedar Creek, TX) was used to introduce point mutations into the human ASIC1a cDNA (GENBANK accession number NM_001095) within the pMT3 expression vector. Mutations were confirmed by DNA sequencing at the Plant-Microbe Genomics Facility at The Ohio State University and high quality plasmid DNA was prepared for injection using Qiagen (Valencia, CA) Midi prep kits. Female Xenopus laevis were purchased from Xenopus I (Dexter, MI) and Xenopus oocytes were isolated using standard procedures. This work was implemented in accordance with the Guide for the Care and Use of Laboratory Animals of the National Institutes of Health and approved by the Institutional Animal Care and Use Committee of The Ohio State University (protocol # 2009A0161-R1). The oocyte removal surgery was performed under tricaine methanesulfonate (MS222) anesthesia and all efforts were made to minimize suffering. Ovarian lobes were removed and digested for 1.5-2 hours at room temperature with 1.2 mg/ml collagenase in Modified Barth’s solution lacking calcium (24 mM NaHCO3, 88 mM NaCl, 15 mM HEPES, 1 mM KCl, 0.8 mM MgSO4, 125 units/liter penicillin/streptomycin) to separate individual oocytes and remove follicular membranes. Healthy stage IV and V oocytes were selected and maintained in Modified Barth’s solution containing calcium (0.4 mM CaCl2 and 0. 3 mM Ca(NO3)2). The nuclei of isolated oocytes were injected with ~5 ng of a 100 ng/µl stock of wildtype or mutant ASIC1a expression plasmids using a PV820 pneumatic picopump (World Precision Instruments, Sarasota, FL). Oocytes were incubated at 18 °C for 18-96 hours before experiments were performed.
The two-electrode voltage clamp technique was used to measure whole cell currents from Xenopus oocytes heterologously expressing ASIC1a channels as described. Electrodes were pulled using a Sutter P-97 micropipette puller (Sutter Instrument Co., Novato, CT) and filled with 3 M KCl (pipette resistance of 0.5–2 MΩ). Oocyte recordings were done in a modified RC-Z3 250 µl oocyte recording chamber (Warner Instruments, Hamden, CT). Data were acquired using an Oocyte Clamp OC-725 Amplifier (Warner Instruments, Hamden, CT) and a Powerlab 4SP digitizer with CHART5 software (ADI Instruments, Colorado Springs, CO). […]
as §1

Experiment [3] deals with T1, human ASIC1a L280C. Description: MTSET modification of the cysteine mutant (residual current read-out), closed vs desensitized state. In kind it is cell-based. The protocol: as §2
The two-electrode voltage clamp technique was used to measure whole cell currents from Xenopus oocytes heterologously expressing ASIC1a channels as described. Electrodes were pulled using a Sutter P-97 micropipette puller (Sutter Instrument Co., Novato, CT) and filled with 3 M KCl (pipette resistance of 0.5–2 MΩ). Oocyte recordings were done in a modified RC-Z3 250 µl oocyte recording chamber (Warner Instruments, Hamden, CT). Data were acquired using an Oocyte Clamp OC-725 Amplifier (Warner Instruments, Hamden, CT) and a Powerlab 4SP digitizer with CHART5 software (ADI Instruments, Colorado Springs, CO). Except where noted, the extracellular solution contained (in mM): 116 NaCl, 2 KCl, 5 HEPES, 5 MES, 2 CaCl2, 1 MgCl2, with pH adjusted using 1N NaOH. The solution exchange rate in the recording chamber was ~1 ml/s. The holding potential was -60 mV unless otherwise noted. [2-(Trimethylammonium)ethyl] Methanethiosulfonate Bromide (MTSET) was purchased from Toronto Research Chemicals, Inc. (Ontario, Canada). FRRFamide peptide (FRRFa) and FRRF (no amide) were synthesized from EZBiolab, Inc. (Westfield, IN).
Oocytes were maintained at a basal pH of 7.4 and maximal currents were established with application of pH 5.0. Currents were allowed to decay for at least 60 s. The control residual current was determined by normalizing the current remaining at 60 s to the peak amplitude (Iresidual/Itransient). After recovery, 300 µM MTSET was applied at pH 7.4 for the indicated duration and excess MTSET was washed away with at least 10 mL of pH 7.4 solution. The pH-dependence of activation and steady-state desensitization were measured as described above. During experiments using MTSET, the effect on residual current decreased slightly over time. […]

Bounds are passed on as bounds.

As to “FRRF [FRRF (no amide), peptide FRRF lacking the c-terminal amide, used as a control]”, on human ASIC1a L280C [1], the “residual current (Iresidual/Itransient)” value is given as 5.6 ± 0.8%. Moreover, the “effect of peptide on MTSET modification” value on human ASIC1a L280C [2] (100 µM peptide + 300 µM MTSET at pH 7.4) was “did not interfere with MTSET modification”.
In the case of `C[N+](C)(C)CCSS(C)(=O)=O.[Br-]` [MTSET, [2-(Trimethylammonium)ethyl] Methanethiosulfonate Bromide], the “% residual current after MTS” value in the experiment with wildtype ASIC1a (300 µM MTSET at pH 7.4, before MTS 0.16 ± 0.05%, n = 3, p = 0.3) is recorded as 0.31 ± 0.04%. For the same compound, the “τinact after MTS” value in the experiment with wildtype ASIC1a (300 µM MTSET at pH 7.4, before MTS 1.8 ± 0.2 s, n = 3, p = 0.9) turned out to be 1.8 ± 0.2 s. The “steady-state desensitization, conditioning pH6.7/7.4 after MTS” value with wildtype ASIC1a (300 µM MTSET, before MTS 1.8 ± 0.7%, n = 3, p = 0.2) worked out at 1.5 ± 0.6%. In the experiment on wildtype ASIC1a (300 µM MTSET, before MTS 66 ± 10%, n = 3, p = 0.7), the “activation pH6.5/5.0 after MTS” value is 62 ± 3%. Besides, the “run down of MTSET effect: decrease in residual current with repeated pH 5.0 applications” value at human ASIC1a L280C [3] (L280C after MTSET modification, n = 8, p = 0.003 paired t-test) stood at 17 ± 5%. The “run down of MTSET effect: decrease in inactivation rate with repeated pH 5.0 applications” value on human ASIC1a L280C [3] (L280C after MTSET modification, n = 8, p = 0.01 paired t-test) is 31 ± 9%. Besides, at human ASIC1a L280C [3] (L280C after MTSET modification, n = 8, p = 0.02 paired t-test), the “run down of MTSET effect: decrease in peak amplitude with repeated pH 5.0 applications” value was 5%. For the same compound, the “time until MTSET modification observed (increase in residual current)” value on human ASIC1a L280C [3] (L280C closed state, pH 6.8, 5.0 mM Ca2+ conditioning, 300 µM MTSET) was at most 2 min. Further, at human ASIC1a L280C [3] (L280C desensitized state, pH 6.8, nominal Ca2+-free conditioning, 300 µM MTSET up to 6 minutes), the “MTSET modification in the desensitized state” value was “did not appreciably modify L280C”. Further, the “time until MTSET modulation plateaued in presence of vehicle” value on human ASIC1a L280C [2] (300 µM MTSET at pH 7.4 with vehicle) worked out at 5 min.
